≈ marks a conversion by molar mass, not a printed value. Read-outs that look alike come from different tables or passages of the source. Bridge positions count the residues as written; N and C are the ends. Peptide text beside a SMILES is read from it.
Key:
neprylysine = neprylysine (Homo sapiens, UniProt P08473); assay: Enzymatic digestion with neprylysine analysed by LC/MS/MS; type: in vitro ADME; settings: for Percentage of digestion / metabolised at 0.5 h: neprylysine; for Area under the curve in the presence of enzyme: neprylysine diluted by a tenth in water; for Area under the control curve (no enzyme): LC/MS/MS; for metabolised at 0.5 h: read-out: Percentage of digestion
Chain of neprylysine (P08473 whole entry): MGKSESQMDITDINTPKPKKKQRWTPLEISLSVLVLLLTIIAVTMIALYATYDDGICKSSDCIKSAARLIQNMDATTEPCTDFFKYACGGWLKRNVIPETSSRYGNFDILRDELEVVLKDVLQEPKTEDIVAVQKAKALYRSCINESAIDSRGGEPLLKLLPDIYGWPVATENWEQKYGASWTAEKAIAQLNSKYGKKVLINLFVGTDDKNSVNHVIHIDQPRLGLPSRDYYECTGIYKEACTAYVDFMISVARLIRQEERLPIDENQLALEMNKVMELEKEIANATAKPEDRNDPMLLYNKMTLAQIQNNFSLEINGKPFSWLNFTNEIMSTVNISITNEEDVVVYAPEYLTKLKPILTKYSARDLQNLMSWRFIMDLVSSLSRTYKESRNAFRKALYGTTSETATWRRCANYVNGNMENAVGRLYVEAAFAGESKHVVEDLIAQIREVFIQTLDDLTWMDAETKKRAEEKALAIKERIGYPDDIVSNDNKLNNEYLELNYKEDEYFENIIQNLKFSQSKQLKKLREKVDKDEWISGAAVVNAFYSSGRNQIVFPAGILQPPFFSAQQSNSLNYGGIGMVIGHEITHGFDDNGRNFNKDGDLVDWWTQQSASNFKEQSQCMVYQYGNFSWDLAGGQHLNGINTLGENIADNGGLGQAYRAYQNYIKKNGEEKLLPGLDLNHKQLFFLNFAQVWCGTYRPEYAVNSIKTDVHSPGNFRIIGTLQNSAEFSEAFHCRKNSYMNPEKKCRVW
Experimental: A so-called “control” sample without enzyme and effected in parallel was performed to establish an analytical reference for each parameter explored. The polypeptides are diluted in deoxygenated water to maintain the stability of both forms over time. Digestions were analyzed by the LC/MS/MS mass spectrometry technique. The percentage of digestion corresponds, for a given polypeptide, to the percentage of the area under the curve in the presence of enzyme relative to the area under the control curve for the same polypeptide.

physchem [1] = type: physicochemical
Experimental: In the case of the polypeptide of amino acid sequence: […] Solubility is particularly important for IT injections because there is a limitation of the injection volume, a limit which is much greater than that for peripheral injections, and a limitation in the solvents and solutions that may be used, for example. The use of a 5% glucose solution improves the solubility of the polypeptide of amino acid sequence: […] [SEQ ID NO: 58] by bringing it to around 10 mg/ml, wherein this solution remains an isotonic solution that is compatible with an IT injection.

physchem [2] = settings: aqueous 0.9% NaCl solution
Experimental: Two weighings of 0.5 mg are made in a 1.5 ml micro tube for the polypeptide
The tubes are then vortexed for a few seconds and one drop of each polypeptide solution so obtained is placed on a glass slide for observation under an optical microscope.

| SMILES | Percentage of digestion (neprylysine; T = 0 min) | Area under the curve in the presence of enzyme (neprylysine; T = 0 min) | Area under the control curve (no enzyme) (neprylysine; T = 0 min) | Percentage of digestion (neprylysine; T = 30 min) [%] | Area under the curve in the presence of enzyme (neprylysine; T = 30 min) | Area under the control curve (no enzyme) (neprylysine; T = 30 min) | metabolised at 0.5 h (neprylysine; isolated enzyme neprilysin, T = 30 min) [%] | solubility (physchem [1]; solubility in 5% glucose solution) [µg/mL] | solubility (physchem [1]; solubility in the physiological liquid) [µg/mL] | metabolised at 0.5 h (neprylysine; isolated neprylysine enzyme, T = 30 min) [%] | solubility (physchem [2]) [µg/mL] |
| --- | --- | --- | --- | --- | --- | --- | --- | --- | --- | --- | --- |
| N=C(N)NCCC[C@@H]1NC(=O)[C@H](CO)NC(=O)[C@@H](NC(=O)[C@H](CO)NC(=O)[C@H](CO)NC(=O)[C@H](Cc2c[nH]c3ccccc23)NC(=O)CNC(=O)[C@H](CO)NC(=O)[C@@H](N)Cc2c[nH]c3ccccc23)CSSC[C@@H](C(=O)NCC(=O)O)NC(=O)[C@H](CO)NC1=O [SEQ ID NO: 2, W-S-G-W-S-S-C-S-R-S-C-G] (H-WSGWSSCSRSCG-OH; disulfide 7-11) | none | 3220000 | 3008000 | 8.5 | 3401000 | 3722000 | 8.5 |  |  |  |  |
| N=C(N)NCCC[C@H](NC(=O)[C@H](CO)NC(=O)[C@H](CS)NC(=O)[C@H](CO)NC(=O)[C@H](CO)NC(=O)[C@H](Cc1c[nH]c2ccccc12)NC(=O)CNC(=O)[C@H](CO)NC(=O)[C@@H](N)Cc1c[nH]c2ccccc12)C(=O)N[C@@H](CO)C(=O)N[C@@H](CS)C(=O)NCC(=O)O [SEQ ID NO: 58, W-S-G-W-S-S-C-S-R-S-C-G] (H-WSGWSSCSRSCG-OH; N-terminus and C-terminus assumed) | none | 797200 | 788400 | 28 | 576500 | 802800 |  | ~10000 (≈ 7680 µM) | 1000 to 2000 (≈ 768 to 1540 µM) | 28 | ~2000 (≈ 1540 µM) |

— patent publication US10501497B2, “Cyclic polypeptides, method for obtaining them and the therapeutic use thereof” (AXOLTIS PHARMA, priority 2015, dated 2019)
